The record followed here is US20050054103A1, “Expansion of renewable stem cell populations using modulators of PI 3-kinase” (priority 2003, published 2005).

The test system of the test is CD34+ cells. The test is described as follows: Nicotinamide supplementation of ex-vivo hematopoietic stem/progenitor cell cultures. The format is cell-based, human. As to conditions: for CD34+ cells per ml: 5 cytokines, re-selected. The protocol: Cultures were prepared and maintained as described above. Nicotinamide was added to cell cultures at concentrations of 1, 5 or 10 mM for up to three weeks culture period. All other procedures including mononuclear cell fraction collection and purification, purification of CD34^+ cells from mononuclear cell fractions, ex-vivo expansion of stem/progenitor cell populations, morphological assessment, surface antigen analysis, determination of CD34, CD38, Lin and other hematopoietic marker expression and cell population calculations were carried out as described in the experimental methods section of Example 1 above.
Hematopoietic CD34+ cell cultures were initiated in the presence of a combination of 5 cytokines, SCF, TPO, FLt3, IL-6 and IL-3, with or without different concentrations of nicotinamide. Following three weeks incubation period, the CD34+ cells were re-selected from culture by affinity re-purification method and were enumerated. […] In addition, the re-selected CD34+ cell fraction was FACS analyzed for stem/progenitor cell markers. The results, presented in FIGS. 15-17 and 18a-b, show substantial increases in the proportion of CD34+/CD38−, CD34+/Lin− and CD34+/(HLA-DR38−) cells in cultures treated with nicotinamide.

For the compound `NC(=O)c1cccnc1` [Nicotinamide], for the setting “1 mM nicotinamide, three weeks”, the “CD34+ cells per ml” value was 99×10^4 cells per ml. For the same compound, for the setting “1 mM, three weeks”, the “increase in CD34+/CD38− cells density vs untreated control” value amounted to 1.7 fold and the “increase in CD34+/Lin− cells density vs untreated control” value is recorded as 10.5 fold. In addition, the “CD34+ cells per ml” value (5 mM nicotinamide, three weeks) is 180×10^4 cells per ml. Where the note is “5 mM, three weeks”, the “increase in CD34+/(HLA-DR38−) cells density vs untreated control” value was 11.5 fold, the “increase in CD34+/CD38− cells density vs untreated control” value came to 51.7 fold and the “increase in CD34+/Lin− cells density vs untreated control” value was 205.5 fold. For the setting “Nicotinamide 5 mM”, the “% of CD34^+/CD38^− of total cells” value turned out to be 9.69% and the “% of CD34^+/Lin^− of total cells” value is 4.11%. Where the note is “Nicotinamide 10 mM”, the “% of CD34^+/CD38^− of total cells” value came out at 34.67% and the “% of CD34^+/Lin^− of total cells” value is reported as 16.58%.
